Each compound was assayed against DNA-PK kinase (Homo sapiens, UniProt P78527) (assay: Inhibition of DNA-PK kinase activity (ADP-Glo)). Settings: averaged values over all measurements on all batches; 150 μM ATP, 1 hour at 25° C.
Assay type: biochemical
Protocol: Inhibition of DNA-PK Kinase Activity Assay buffer was 50 mM Hepes pH 7.5 containing 0.1 mg/ml BSA (albumin from bovine serum), 50 μM DTT (dithiothreitol), 20 mM MgCl2 and 10 μg/ml calf thymus DNA (activation buffer). Kinase reaction was carried out in OptiPlate 384 plates (PerkinElmer 6007299). All compounds tested were dissolved in dimethyl sulfoxide (DMSO) and further dilutions were made in assay buffer. Final DMSO concentration was 1% (v/v). Pre-incubation consisted of compound (1% DMSO in control and blank wells) and 24 ng/well DNA-PK kinase to allow the compounds to bind the enzyme (with buffer in the blank wells) for 15 minutes; after this time 150 μM Adenosine-5′-triphosphate (ATP) and 0.2 μg/μl DNA-PK substrate were added to commence the kinase reaction. Incubations were carried out for 1 hour at 25° C. Kinase activity was determined by using ADP-Glo™ reagent from Promega according to the manufacturer's instructions. The light generated was measured using a luminometer (EnVision, PerkinElmer). Signal obtained in the wells containing blank samples was subtracted from all other wells and IC50 values were determined by fitting a sigmoidal curve to % inhibition of control versus Log10 compound concentration.

| Compound | IC50 [nM] |
| --- | --- |
| C[S+]([O-])[C@H]1CC[C@@H](Oc2nc(N3CCOCC3)cc3ncccc23)CC1 (mixture of isomers) [Example 83] | 169 |
| C[C@@H]1CN(c2ncn[nH]2)CC[C@@H]1Oc1nc(N2CCOCC2)cc2ncccc12 (single isomer, unassigned) [Parent compound 160] | 493 |
| c1cnc(NCCCOc2nc(N3CCOCC3)cc3ncccc23)nc1 [Example 7] | 415 |
| c1cnc2cc(N3CCOCC3)nc(OC3CCCCC3)c2c1 [Example 9] | 468 |
| c1cnc(NCCC2CCCN(c3nc(N4CCOCC4)cc4ncccc34)C2)nc1 (centres unmarked) [Example 23] | 211 |
| CC1(CNc2ncccn2)CCN(c2nc(N3CCOCC3)cc3ncccc23)C1 (centres unmarked) [Example 25] | 224 |
| O=C(Nc1ncccn1)C1CCN(c2nc(N3CCOCC3)cc3ncccc23)CC1 [Example 26] | 226 |
| O=C(NC1CCN(c2nc(N3CCOCC3)cc3ncccc23)CC1)c1ncccn1 [Example 27] | 274 |
| c1cnc(N2CC3CN(c4nc(N5CCOCC5)cc5ncccc45)CC3C2)nc1 (centres unmarked) [Example 28] | 342 |
| c1cnc(N2CCC23CCN(c2nc(N4CCOCC4)cc4ncccc24)C3)nc1 (centres unmarked) [Example 29] | 345 |
| CC(C)(C)OC(=O)NCCC1CCN(c2nc(N3CCOCC3)cc3ncccc23)CC1 [Example 30] | 369 |
| c1cnc(NC2CCCN(c3nc(N4CCOCC4)cc4ncccc34)C2)nc1 (centres unmarked) [Example 31] | 492 |
| c1cnc2cc(N3CCOCC3)nc(N3CCCCC3)c2c1 [Example 32] | 523 |
| CC(C)(C)OC(=O)NCC1CCN(c2nc(N3CCOCC3)cc3ncccc23)CC1 [Example 33] | 532 |
| c1cnc(N2CC3(CCN(c4nc(N5CCOCC5)cc5ncccc45)C3)C2)nc1 [Example 34] | 588 |
| c1cnc(N2CCC3(C2)CN(c2nc(N4CCOCC4)cc4ncccc24)C3)nc1 [Example 35] | 720 |
| c1cnc(NCC2CCCN(c3nc(N4CCOCC4)cc4ncccc34)C2)nc1 (centres unmarked) [Example 36] | 949 |
| CC(C)(C)OC(=O)N1CCC2CN(c3nc(N4CCOCC4)cc4ncccc34)CC21 (centres unmarked) [Example 37] | 1300 |

| Compound | IC50 [nM] |
| --- | --- |
| c1cnc(CN2CCC3CN(c4nc(N5CCOCC5)cc5ncccc45)CC32)nc1 (centres unmarked) [Example 42] | 2260 |
| CC(C)(C)OC(=O)N1CCC(Oc2nc(N3CCOCC3)cc3ncccc23)CC1 [Example 48] | 328 |
| COc1ccc(COc2nc(N3CCOCC3)cc3ncccc23)cc1 [Example 53] | 242 |
| C[C@H]1CN(c2cc3ncccc3c(O[C@H]3CC[C@@H](c4nc[nH]n4)CC3)n2)CCO1 [Example 68] | 48 |
| c1cncc(C2CCCCN2c2nc(N3CCOCC3)cc3ncccc23)c1 (centres unmarked) [Example 85] | 2030 |
| c1cnc2cc(N3CCOCC3)nc(N3CCC(c4ncc[nH]4)CC3)c2c1 [Example 86] | 223 |
| c1cnc2cc(N3CCOCC3)nc(OC3CCNCC3)c2c1 [Example 89] | 361 |
| c1cnc2cc(N3CCOCC3)nc(N3CCNCC3)c2c1 [Example 95] | 5440 |
| O=C(O)c1ccnc(NCC2CCN(c3nc(N4CCOCC4)cc4ncccc34)CC2)n1 [Example 110] | 88 |
| OCc1ccnc(NCC2CCN(c3nc(N4CCOCC4)cc4ncccc34)CC2)n1 [Example 116] | 124 |
| N#Cc1cnc(NCC2CCN(c3nc(N4CCOCC4)cc4ncccc34)CC2)nc1Cl [Example 123] | 232 |
| COc1nc(NCC2CCN(c3nc(N4CCOCC4)cc4ncccc34)CC2)ncc1Cl [Example 124] | 247 |
| N#Cc1cc(Br)cnc1NCC1CCN(c2nc(N3CCOCC3)cc3ncccc23)CC1 [Example 125] | 504 |
| CC(=O)Nc1ccnc(NCC2CCN(c3nc(N4CCOCC4)cc4ncccc34)CC2)n1 [Example 126] | 676 |
| Cc1ccnc(NCC2CCN(c3nc(N4CCOCC4)cc4ncccc34)CC2)c1 [Example 134] | 155 |
| Fc1cccnc1NCC1CCN(c2nc(N3CCOCC3)cc3ncccc23)CC1 [Example 135] | 178 |
| c1cnc2cc(N3CCOCC3)nc(N3CCC(CNc4ccncc4)CC3)c2c1 [Example 136] | 340 |

From patent publication US20230063457A1, “DNA-PK INHIBITING COMPOUNDS” (Provincial Health Services Authority, priority 2019, published 2023)
